# Reference: patent US4345938A, “Herbicidal 2-haloacetanilides” (Monsanto Company, priority 1980, dated 1982)
# Like-named read-outs stand apart in the source and are kept apart here.
# Assays:
# Format in all cases: in vivo
# [1] = tested on: Rice; assay: Field transplant rice test, applied 0 DAT, rice injury; settings: for inhibition at 375 g/ha / inhibition at 750 g/ha / inhibition at 1500 g/ha / inhibition at 3000 g/ha: Oryza sativa, 0 h, read-out: Percent Inhibition, Rice; for inhibition at 375 g/ha: 0.375 Kg/Ha; for inhibition at 750 g/ha: 0.75 Kg/Ha; for inhibition at 1500 g/ha: 1.5 Kg/Ha; for inhibition at 3000 g/ha: 3.0 Kg/Ha
# Outline: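 Field test in transplant rice with herbicide applied as granules at transplanting (0 DAT), at rates from 3.0 kg/ha down to 0.375 kg/ha. Injury was rated weekly from 2 to 6 weeks after transplant. Granules held 2.5% or 5.0% herbicide by weight, depending on compound.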
# [2] = tested on: Eleocharis kuroguwai; assay: Field transplant rice test, applied 9 DAT, EK; settings: for inhibition at 375 g/ha / inhibition at 750 g/ha / inhibition at 1500 g/ha / inhibition at 3000 g/ha: Eleocharis kuroguwai, 216 h, read-out: Percent Inhibition, EK; for inhibition at 375 g/ha: 0.375 Kg/Ha; for inhibition at 750 g/ha: 0.75 Kg/Ha; for inhibition at 1500 g/ha: 1.5 Kg/Ha; for inhibition at 3000 g/ha: 3.0 Kg/Ha
# Outline: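 Field test in transplanted rice, herbicides applied as granules (2.5% or 5.0% w/w active) 9 days after transplant at 3.0 down to 0.375 kg/ha. Weed control observed weekly from 3 to 7 weeks after transplant.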
# [3] = tested on: Cyperus serotinus; assay: Field transplant rice test, applied 0 DAT, CS; settings: 0 h, read-out: Percent Inhibition, CS; for inhibition at 375 g/ha: 0.375 Kg/Ha; for inhibition at 750 g/ha: 0.75 Kg/Ha; for inhibition at 1500 g/ha: 1.5 Kg/Ha; for inhibition at 3000 g/ha: 3.0 Kg/Ha
# Outline: (§1)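 Field test in transplanted rice, herbicide applied as granules (2.5% or 5.0% w/w active) at transplanting (0 DAT). Rates from 3.0 kg/ha down to 0.375 kg/ha. Weed control observed weekly from 2 to 6 weeks after transplant, reported at 2, 4 and 6 WAT.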
# [4] = tested on: Eleocharis kuroguwai; assay: Field transplant rice test, applied 0 DAT, EK; settings: 0 h, read-out: Percent Inhibition, EK; for inhibition at 375 g/ha: 0.375 Kg/Ha; for inhibition at 750 g/ha: 0.75 Kg/Ha; for inhibition at 1500 g/ha: 1.5 Kg/Ha; for inhibition at 3000 g/ha: 3.0 Kg/Ha
# Outline: as §1
# [5] = tested on: Monochoria vaginalis; assay: Greenhouse transplant rice test, MV; settings: Pontederia vaginalis, about 3 WAT, read-out: Percent Inhibition, MV
# Text: The test procedure used in this greenhouse test is as follows: Ray silt loam top soil containing about 0.05% by weight of krillium and sifted through a […] screen is fumigated about 5-10 days prior to use. Pots are then filled with said Ray silt loam soil to a level to allow for a 1 in. (2.54 cm) flooding depth. Rice plants (Bluebelle) of 2 to 3 weeks age are transplanted to the pots and bulbs or seeds of the test weeds also planted in the pots. The pots are then flooded and the test chemical applied to the surface of the flood water. The flood water is reduced to allow for germination of the Echinochloa crus-galli (barnyardgrass) seed and subsequently reflooded and maintained in that condition. Observations of percent inhibition using a scale of 0-100% are made about 3 weeks after transplant (WAT).
# The test data in Table III for all compounds was obtained under identical test conditions. The weeds used in the tests herein have the following abbreviations in the tables: Echinochloa crus-galli (EC), Monochloria vaginalis (MV), Cyperus Serotinus (CS), Eleocharis Kuroguwai (EK) and Sagittaria trifolia (ST).
# [6] = tested on: Monochoria vaginalis; assay: Field transplant rice test, applied 0 DAT, MV; settings: Pontederia vaginalis, 0 h, read-out: Percent Inhibition, MV; for inhibition at 375 g/ha: 0.375 Kg/Ha; for inhibition at 750 g/ha: 0.75 Kg/Ha; for inhibition at 1500 g/ha: 1.5 Kg/Ha; for inhibition at 3000 g/ha: 3.0 Kg/Ha
# Outline: as §1
smiles,measurement,setting,value
"CCCCOc1cccc(CC)c1N(C)C(=O)CCl [Example 1, N-methyl-2'-n-butoxy-6'-ethyl-2-chloroacetanilide]",safety in rice,[1],safe in rice at rates above 1.5 kg/ha and slightly less than 3.0 kg/ha
same,inhibition at 375 g/ha,[1]; 2 WAT,10%
same,inhibition at 375 g/ha,[1]; 4 WAT,7%
same,inhibition at 375 g/ha,[1]; 6 WAT,5%
same,inhibition at 750 g/ha,[1]; 2 WAT,3%
same,inhibition at 750 g/ha,[1]; 4 WAT,0%
same,inhibition at 750 g/ha,[1]; 6 WAT,2%
same,inhibition at 1500 g/ha,[1]; 2 WAT,5%
same,inhibition at 1500 g/ha,[1]; 4 WAT,0%
same,inhibition at 1500 g/ha,[1]; 6 WAT,2%
same,inhibition at 3000 g/ha,[1]; 2 WAT,25%
same,inhibition at 3000 g/ha,[1]; 4 WAT,22%
same,inhibition at 3000 g/ha,[1]; 6 WAT,23%
same,inhibition at 375 g/ha,[2]; 3 WAT,80%
same,inhibition at 375 g/ha,[2]; 5 WAT,52%
same,inhibition at 375 g/ha,[2]; 7 WAT,15%
same,inhibition at 750 g/ha,[2]; 3 WAT,83%
same,inhibition at 750 g/ha,[2]; 5 WAT,68%
same,inhibition at 750 g/ha,[2]; 7 WAT,13%
same,inhibition at 1500 g/ha,[2]; 3 WAT,82%
same,inhibition at 1500 g/ha,[2]; 5 WAT,65%
same,inhibition at 1500 g/ha,[2]; 7 WAT,0%
same,inhibition at 3000 g/ha,[2]; 3 WAT,93%
same,inhibition at 3000 g/ha,[2]; 5 WAT,93%
same,inhibition at 3000 g/ha,[2]; 7 WAT,67%
same,"selectivity factor (GR15/GR85), EK in transplant rice",[2]; up to 5 WAT,about 2
same,inhibition at 375 g/ha,[3]; 2 WAT,77%
same,inhibition at 375 g/ha,[3]; 4 WAT,73%
same,inhibition at 375 g/ha,[3]; 6 WAT,50%
same,inhibition at 750 g/ha,[3]; 2 WAT,62%
same,inhibition at 750 g/ha,[3]; 4 WAT,53%
same,inhibition at 750 g/ha,[3]; 6 WAT,25%
same,inhibition at 1500 g/ha,[3]; 2 WAT,92%
same,inhibition at 1500 g/ha,[3]; 4 WAT,83%
same,inhibition at 1500 g/ha,[3]; 6 WAT,73%
same,inhibition at 3000 g/ha,[3]; 2 WAT,95%
same,inhibition at 3000 g/ha,[3]; 4 WAT,99%
same,inhibition at 3000 g/ha,[3]; 6 WAT,100%
same,inhibition at 375 g/ha,[4]; 2 WAT,73%
same,inhibition at 375 g/ha,[4]; 4 WAT,40%
same,inhibition at 375 g/ha,[4]; 6 WAT,3%
same,inhibition at 750 g/ha,[4]; 2 WAT,82%
same,inhibition at 750 g/ha,[4]; 4 WAT,75%
same,inhibition at 750 g/ha,[4]; 6 WAT,50%
same,inhibition at 1500 g/ha,[4]; 2 WAT,87%
same,inhibition at 1500 g/ha,[4]; 4 WAT,83%
same,inhibition at 1500 g/ha,[4]; 6 WAT,37%
same,inhibition at 3000 g/ha,[4]; 2 WAT,97%
same,inhibition at 3000 g/ha,[4]; 4 WAT,92%
same,inhibition at 3000 g/ha,[4]; 6 WAT,65%
same,inhibition at 280 g/ha,[5]; 0.28 Kg/Ha,100%
same,inhibition at 560 g/ha,[5]; 0.56 Kg/Ha,100%
same,inhibition at 1120 g/ha,[5]; 1.12 Kg/Ha,100%
same,inhibition at 2240 g/ha,[5]; 2.24 Kg/Ha,100%
same,inhibition at 375 g/ha,[6]; 2 WAT,98%
same,inhibition at 375 g/ha,[6]; 4 WAT,100%
same,inhibition at 375 g/ha,[6]; 6 WAT,93%
same,inhibition at 750 g/ha,[6]; 2 WAT,100%
same,inhibition at 750 g/ha,[6]; 4 WAT,99%
same,inhibition at 750 g/ha,[6]; 6 WAT,97%
same,inhibition at 1500 g/ha,[6]; 2 WAT,100%
same,inhibition at 1500 g/ha,[6]; 4 WAT,100%
same,inhibition at 1500 g/ha,[6]; 6 WAT,100%
same,inhibition at 3000 g/ha,[6]; 2 WAT,100%
same,inhibition at 3000 g/ha,[6]; 4 WAT,100%
same,inhibition at 3000 g/ha,[6]; 6 WAT,100%
